Measured values taken from article PMC5513091, “A novel Alzheimer’s disease drug candidate targeting inflammation and fatty acid metabolism” (Alzheimer's Research & Therapy, 2017).

Tested on: cortex metabolites
Experiment: Metabolomic analysis of cortex
Format: in vivo, mice
Details: cortex
Method: Metabolomic analyses were conducted at Metabolon (Durham, NC, USA) as described previously. For statistical analyses and data display, any missing values were assumed to be below the limits of detection and imputed with the compound minimum (minimum value imputation). An estimate of the FDR (Q value) was calculated to take into account the multiple comparisons that normally occur in metabolomics-based studies, with Q < 0.05 used as an indication of high confidence in a result. The MetaboAnalyst tool was used to generate heat maps.

For Cc1ccc(N(/N=C/c2cccc(OC(F)(F)F)c2)C(=O)C(F)(F)F)c(C)c1 [CAD-31], the “mannose-6-phosphate Fold Change” value (AD+31/AD, p-value 0.9434) was 1.05, the “cytidine 5'-monophospho-N-acetylneuraminic acid Fold Change” value (AD+31/AD, p-value 0.9957) was 1 and the “ergothioneine Fold Change” value (C+31/C, p-value 0.0002) was 0.56. For the same compound, the “17-methylstearate Fold Change” value (C+31/C, p-value 0.0006) was 0.54, the “phenol sulfate Fold Change” value (C+31/C, p-value 0.0029) was 0.41 and the “N-delta-acetylornithine Fold Change” value (C+31/C, p-value 0.0034) was 1.51. The “gamma-glutamylhistidine Fold Change” value (C+31/C, p-value 0.0046) was 0.55, the “1-palmitoylglycerol (16:0) Fold Change” value (C+31/C, p-value 0.0049) was 0.67 and the “dihomo-linoleate (20:2n6) Fold Change” value (C+31/C, p-value 0.0052) was 0.53. For the same compound, the “linoleoyl ethanolamide Fold Change” value (C+31/C, p-value 0.0058) was 0.52, the “arachidate (20:0) Fold Change” value (C+31/C, p-value 0.0074) was 0.59 and the “pyroglutamine* Fold Change” value (C+31/C, p-value 0.0076) was 1.27. For the same compound, the “adenosine 2'-monophosphate (2'-AMP) Fold Change” value (C+31/C, p-value 0.0085) was 1.49, the “docosatrienoate (22:3n3) Fold Change” value (C+31/C, p-value 0.0095) was 0.35 and the “stearate (18:0) Fold Change” value (C+31/C, p-value 0.01) was 0.61. For the same compound, the “nonadecanoate (19:0) Fold Change” value (C+31/C, p-value 0.0112) was 0.63, the “1-oleoylglycerol (18:1) Fold Change” value (C+31/C, p-value 0.0125) was 0.6 and the “10-nonadecenoate (19:1n9) Fold Change” value (C+31/C, p-value 0.0132) was 0.6. For the same compound, the “3-hydroxybutyrylcarnitine (2) Fold Change” value (C+31/C, p-value 0.016) was 1.78, the “adrenate (22:4n6) Fold Change” value (C+31/C, p-value 0.0161) was 0.5 and the “oleate/vaccenate (18:1) Fold Change” value (C+31/C, p-value 0.0172) was 0.59. The “eicosenoate (20:1) Fold Change” value (C+31/C, p-value 0.0212) was 0.61, the “lactate Fold Change” value (C+31/C, p-value 0.0212) was 1.26 and the “palmitate (16:0) Fold Change” value (C+31/C, p-value 0.0241) was 0.65. For the same compound, the “margarate (17:0) Fold Change” value (C+31/C, p-value 0.0267) was 0.61, the “2-hydroxydecanoate Fold Change” value (C+31/C, p-value 0.0327) was 0.68 and the “1-arachidonylglycerol (20:4) Fold Change” value (C+31/C, p-value 0.0338) was 0.66. For the same compound, the “3-hydroxybutyrate (BHBA) Fold Change” value (C+31/C, p-value 0.0349) was 1.87, the “2-palmitoylglycerol (16:0) Fold Change” value (C+31/C, p-value 0.035) was 0.65 and the “succinylcarnitine Fold Change” value (C+31/C, p-value 0.0357) was 0.72. The “oleoyl-oleoyl-glycerol (18:1/18:1) [2]* Fold Change” value (C+31/C, p-value 0.0363) was 1.12, the “acetyl CoA Fold Change” value (C+31/C, p-value 0.0372) was 1.87 and the “erucate (22:1n9) Fold Change” value (C+31/C, p-value 0.0376) was 0.64. For the same compound, the “glycerol 3-phosphate Fold Change” value (C+31/C, p-value 0.0387) was 0.8, the “docosadienoate (22:2n6) Fold Change” value (C+31/C, p-value 0.0388) was 0.62 and the “acetylcarnitine Fold Change” value (C+31/C, p-value 0.0422) was 1.53. For the same compound, the “1-docosahexaenoylglycerol (22:6) Fold Change” value (C+31/C, p-value 0.0423) was 0.64, the “1-stearoyl-GPG (18:0) Fold Change” value (C+31/C, p-value 0.0449) was 0.59 and the “arachidonoyl ethanolamide Fold Change” value (C+31/C, p-value 0.0462) was 0.86. The “glucosamine-6-phosphate Fold Change” value (C+31/C, p-value 0.0462) was 1.4, the “glutamate Fold Change” value (C+31/C, p-value 0.0465) was 1.09 and the “tricosenoate (23:1) Fold Change” value (C+31/C, p-value 0.0476) was 0.64. The “mead acid (20:3n9) Fold Change” value (C+31/C, p-value 0.0477) was 0.6, the “adenosine 5'-diphosphoribose (ADP-ribose) Fold Change” value (C+31/C, p-value 0.0695) was 1.15 and the “sedoheptulose-7-phosphate Fold Change” value (C+31/C, p-value 0.0888) was 1.15. For the same compound, the “2-hydroxystearate Fold Change” value (C+31/C, p-value 0.0897) was 0.58, the “UDP-N-acetylglucosamine/galactosamine Fold Change” value (C+31/C, p-value 0.0923) was 1.08 and the “2-oleoylglycerol (18:1) Fold Change” value (C+31/C, p-value 0.0938) was 0.77. For the same compound, the “putrescine Fold Change” value (C+31/C, p-value 0.0994) was 1.2, the “2-methylcitrate/homocitrate Fold Change” value (C+31/C, p-value 0.1114) was 1.09 and the “1-palmitoyl-GPG (16:0)* Fold Change” value (C+31/C, p-value 0.126) was 0.57. For the same compound, the “mannose-6-phosphate Fold Change” value (C+31/C, p-value 0.1316) was 1.33, the “glutamate, gamma-methyl ester Fold Change” value (C+31/C, p-value 0.1579) was 1.35 and the “anserine Fold Change” value (C+31/C, p-value 0.1772) was 1.18. For the same compound, the “gulonate* Fold Change” value (C+31/C, p-value 0.179) was 1.11, the “glucose 6-phosphate Fold Change” value (C+31/C, p-value 0.199) was 1.27 and the “fructose-6-phosphate Fold Change” value (C+31/C, p-value 0.2317) was 1.26. For the same compound, the “methylphosphate Fold Change” value (C+31/C, p-value 0.233) was 1.1, the “1-oleoyl-2-linoleoyl-GPC (18:1/18:2)* Fold Change” value (C+31/C, p-value 0.2649) was 0.92 and the “N-formylmethionine Fold Change” value (C+31/C, p-value 0.286) was 1.07. For the same compound, the “acetylphosphate Fold Change” value (C+31/C, p-value 0.2996) was 1.11, the “phosphoethanolamine Fold Change” value (C+31/C, p-value 0.3099) was 1.04 and the “azelate (nonanedioate) Fold Change” value (C+31/C, p-value 0.3211) was 0.81. For the same compound, the “methionine Fold Change” value (C+31/C, p-value 0.3291) was 1.08, the “coenzyme A Fold Change” value (C+31/C, p-value 0.3422) was 0.88 and the “arabinose Fold Change” value (C+31/C, p-value 0.3687) was 1.05. The “1-palmitoyl-2-gamma-linolenoyl-GPC (16:0/18:3n6)* Fold Change” value (C+31/C, p-value 0.3875) was 0.94, the “3-sulfo-nervonoyl-galactosylceramide (d18:1/24:1) Fold Change” value (C+31/C, p-value 0.4046) was 0.97 and the “N-acetylmethionine Fold Change” value (C+31/C, p-value 0.4061) was 0.96. For the same compound, the “UDP-galactose Fold Change” value (C+31/C, p-value 0.4075) was 0.86, the “N-acetylglucosaminylasparagine Fold Change” value (C+31/C, p-value 0.4104) was 0.96 and the “prolylglycine Fold Change” value (C+31/C, p-value 0.4172) was 0.96. The “1-stearoyl-GPC (18:0) Fold Change” value (C+31/C, p-value 0.4215) was 1.08, the “N-acetylalanine Fold Change” value (C+31/C, p-value 0.4319) was 1.04 and the “1-oleoyl-2-arachidonoyl-GPI (18:1/20:4) * Fold Change” value (C+31/C, p-value 0.4368) was 1.04. The “1-(1-enyl-stearoyl)-2-arachidonoyl-GPE (P-18:0/20:4)* Fold Change” value (C+31/C, p-value 0.4593) was 0.98, the “UDP-glucose Fold Change” value (C+31/C, p-value 0.4697) was 0.92 and the “galactose 1-phosphate Fold Change” value (C+31/C, p-value 0.4772) was 1.14. The “1-methylimidazoleacetate Fold Change” value (C+31/C, p-value 0.4871) was 1.07, the “cytidine 5'-monophospho-N-acetylneuraminic acid Fold Change” value (C+31/C, p-value 0.4904) was 0.95 and the “ribose Fold Change” value (C+31/C, p-value 0.5044) was 1.04. The “glycerate Fold Change” value (C+31/C, p-value 0.512) was 0.86, the “glycerophosphoethanolamine Fold Change” value (C+31/C, p-value 0.5491) was 1.04 and the “palmitoylcholine Fold Change” value (C+31/C, p-value 0.5572) was 0.92. For the same compound, the “1-stearoyl-2-oleoyl-GPI (18:0/18:1)* Fold Change” value (C+31/C, p-value 0.5722) was 1.05, the “sphingomyelin (d18:1/18:1, d18:2/18:0) Fold Change” value (C+31/C, p-value 0.5944) was 1.03 and the “5-methylthioadenosine (MTA) Fold Change” value (C+31/C, p-value 0.6209) was 1.02. The “6-phosphogluconate Fold Change” value (C+31/C, p-value 0.6443) was 0.95, the “3-hydroxy-3-methylglutarate Fold Change” value (C+31/C, p-value 0.6796) was 1.02 and the “2'-deoxycytidine Fold Change” value (C+31/C, p-value 0.6852) was 1.04. The “N-acetylglutamate Fold Change” value (C+31/C, p-value 0.7525) was 0.99, the “beta-citrylglutamate Fold Change” value (C+31/C, p-value 0.7663) was 1.03 and the “O-methyltyrosine Fold Change” value (C+31/C, p-value 0.8149) was 1.04. The “N-acetyl-glucosamine 1-phosphate Fold Change” value (C+31/C, p-value 0.8284) was 1.06, the “1-palmitoyl-2-oleoyl-GPS (16:0/18:1) Fold Change” value (C+31/C, p-value 0.8378) was 1.01 and the “hypoxanthine Fold Change” value (C+31/C, p-value 0.8444) was 1.01. For the same compound, the “lysine Fold Change” value (C+31/C, p-value 0.8761) was 1, the “hippurate Fold Change” value (C+31/C, p-value 0.9003) was 1.01 and the “N-acetylneuraminate Fold Change” value (C+31/C, p-value 0.9027) was 1.01. For the same compound, the “1-palmitoyl-2-palmitoleoyl-GPC (16:0/16:1)* Fold Change” value (C+31/C, p-value 0.9106) was 1, the “glycerophosphoglycerol Fold Change” value (C+31/C, p-value 0.9156) was 1 and the “deoxycarnitine Fold Change” value (C+31/C, p-value 0.9284) was 1.02. The “mannose Fold Change” value (C+31/C, p-value 0.9846) was 0.96.
